Several values for one entry are separate records, joined by “and”; a condition that tells them apart may be missing. Equal values may be shown once. Read-outs that look alike come from different tables or passages of the source.

The conditions of series [1]: mice; cited from earlier work.
For series [2], the system named is advanced solid cancers. Kind of series: Optimal dosage regimen study in humans: safety (non-prescribed withdrawal) and efficacy (RECIST) profiles. Format: in vivo, human. The conditions noted are these: for Non-prescribed withdrawal: N = 6. How it is done: With regard to Example 3, the optimal dosage regimen of Compound 1 was studied. The safety profiles and efficacy profiles when the recommend doses were administered in the schedule of administration for 7 consecutive days and the schedule of 4-administration with 3-withdrawal were compared in patients with advanced solid cancers for which standard treatment options were not available.
For the safety profiles, non-prescribed withdrawal periods were compared. The non-prescribed withdrawal period is a comprehensive index of safety profiles.
In this Example, dose modification criteria in the case of the occurrence of a toxicity for which a causal relationship to the drug cannot be denied were shown. Dose modification criteria for non-hematologic toxicities, dose modification criteria for hematologic toxicities, and dose modification criteria for other toxicities were set. When any of these criteria was met, a prescribed day to perform drug administration was changed to a day on which the drug is not administered, i.e., a non-prescribed withdrawal period.
The dose modification criteria for non-hematologic toxicities for which a causal relationship to the drug cannot be denied were set as follows.
With regard to fasting blood glucose, if symptomatic grade 4 hyperglycemia or grade 3 or higher hyperglycemia for more than 7 days develops, the administration is discontinued (non-prescribed withdrawal). If the condition recovers to grade 1 or grade 0, the administration can be resumed. When the administration is resumed, the administration amount is reduced by one level from the original administration amount. However, for adverse events (e.g., fatigue and skin dryness) that are judged to be less likely to become serious or worsen to life-threatening events, the administration of the drug can be continued at the same administration amount without dose reduction or administration discontinuation, regardless of the grades of the events.
In the case of DLTs or grade 3 or higher non-hematologic toxicities as other toxicities, the administration is discontinued (non-prescribed withdrawal). If the condition recovers to grade 1 or less or to the baseline, the administration can be resumed. As grade 3 or higher non-hematologic toxicities, grade 3 nausea and/or vomiting that could be treated by intensive antiemetic therapy, grade 3 diarrhea in which an antidiarrheal was effective, and grade 3 skin toxicity that could be treated by intensive skin treatment with, for example, a topical steroid and/or an oral corticosteroid are excluded. When the administration is resumed, the administration amount is reduced by one level from the original administration amount. However, for adverse events (e.g., fatigue and skin dryness) that are judged to be less likely to become serious or worsen to life-threatening events, the administration of the drug can be continued at the same administration amount without dose reduction or administration discontinuation, regardless of the grades of the events.
The dose modification criteria for hematologic toxicities for which a causal relationship to the drug cannot be denied were set as follows.
If the neutrophil count is less than 500/mm^3, the administration is discontinued (non-prescribed withdrawal). If the neutrophil count recovers to 1500/mm^3 or more, the administration can be resumed. […] In the case of asymptomatic neutropenia lasting more than 7 days or neutropenia with a symptom (neutropenia with an infectious disease or fever), the administration amount is reduced by one level from the original administration amount.
If the platelet count is less than 25000/mm^3, the administration is discontinued (non-prescribed withdrawal). If the platelet count recovers to 75000/mm^3 or more, the administration can be resumed. When the administration is resumed, the administration amount is reduced by one level from the original administration amount. […]

Series [3] relates to Human ovarian cancer cell line OVCAR-3. Kind of series: Administration schedule study in nude mouse model subcutaneously transplanted with OVCAR-3. It counts as in vivo. The conditions noted are these: OVCAR-3 xenograft, FIG. 1. How it is done:
Human ovarian cancer cell line OVCAR-3 (American Type Culture Collection (ATCC)) that had been subcutaneously subcultured in mice was cut to about 2 mm squares and subcutaneously transplanted into 5-week-old […] BALB/cAJcl-nu/nu mice (CLEA Japan, Inc.) using a transplantation needle.
The grouping day was defined as Day 1.
The tumor volume (TV) was calculated using the following formula.
TV=(major axis×minor axis×minor axis)×½
Requisite amounts of Compound 1 were weighed, and each was individually suspended in a 0.5% (w/v) hydroxypropyl methylcellulose (HPMC) aqueous solution to prepare administration liquids having appropriate concentrations. For the control group, a 0.5% (w/v) HPMC aqueous solution was used as an administration liquid.
The administration amount was 10 mL/kg body weight, and each administration liquid was individually injected into the stomach of the mice with a feeding needle.
Twice a week, the major axis and the minor axis of each tumor were measured from the skin with an electronic caliper, and the following items were further calculated. These were used as indexes to confirm the presence or absence of an antitumor effect.
Tumor volume (TVn)=(major axis×minor axis×minor axis)×½ […]
On the same days as the tumor volume measurement, the body weight (BW) of the mice was measured with an electronic balance, and the body weight change (BWC) was further calculated. […]

Series [4] can be described thus: Pharmacokinetics of Compound 1 in humans. The conditions noted are these: for Blood concentration remaining before administration: 24 mg/body/day, 4-administration with 3-withdrawal. Format: in vivo, human. On the procedure: The pharmacokinetics of the recommend doses of Compound 1 in administration for 7 consecutive days and 4-administration with 3-withdrawal were measured in patients with advanced solid cancers for which standard treatment options were not available.
In the administration for 7 consecutive days, Compound 1 was orally administered once a day at a dose of 16 mg/body/day for three courses for a total duration of 21 days, with one course taken as 7 days. Blood samples were taken over time on day 1 and day 21, which was the last administration day of the three courses, to measure the pharmacokinetics.
In the 4-administration with 3-withdrawal, Compound 1 was orally administered once a day at a dose of 24 mg/body/day for three courses for a total duration of 21 days, with one course taken as 7 days. Blood samples were taken over time on day 1 and day 18, which was the last administration day of the three courses, to measure the pharmacokinetics. Blood samples were also taken immediately before administration on day 3, day 4, and day 8.

Series [5] in a line: Dose escalation (3+3 design) to determine recommend dose and administration schedule in humans. It counts as in vivo, human. Particulars: oral once a day, patients with advanced solid cancers. How it is done:
This test was performed to determine the recommend dose and administration schedule of Compound 1 and investigate the safety profile of Compound 1 for patients with advanced solid cancers for which standard treatment options are not available.
In this Example, first, the recommend doses for the schedule of administration for 7 consecutive days and the schedule of 4-administration with 3-withdrawal were determined. In the schedule of administration of Compound 1 for 7 consecutive days, Compound 1 was orally administered consecutively once a day for three courses for a total duration of 21 days, with one course taken as 7 days. In 4-administration with 3-withdrawal, Compound 1 was orally administered once a day on day 1 to day 4, day 8 to day 11, and day 15 to day 18 of three courses for a total duration of 21 days, with one course taken as 7 days.
In the schedule of administration for 7 consecutive days, the administration amount taken at one time started at 4 mg/body/day. […]
In the present invention, the 3+3 design was performed in the following manner. […] Whether the level proceeds is determined by the investigator and the sponsor based on comprehensive considerations of not only the information on DLTs, but also all related toxicities regardless of whether they are DLTs, and drugs used in combination/combination therapy from a clinical perspective. […]

The conditions of series [6]: humans; cited from earlier work.
Setting [7] is: 4-administration with 3-withdrawal, 24 mg/body/day.
[8] abbreviates: administration for 7 consecutive days, 16 mg/body/day.

Regarding `C[C@]1(O)C[C@@](N)(c2ccc(-c3nc4n(c3-c3ccccc3)COc3ccncc3-4)cc2)C1` [Compound 1, trans-3-amino-1-methyl-3-(4-(3-phenyl-5H-imidazo[1,2-c]pyrido[3,4-e][1,3]oxazin-2-yl)phenyl)cyclobutanol], the Half-life entry in series [1] is “about 2.3 hours”; in series [4] (human, blood, humans, oral) it was roughly 49 h. The Non-prescribed withdrawal period in series [2] (setting [7]) was 2 days and 2.0 days; in series [2] (administration for 7 consecutive days, 16 mg/body/day, average) it was 3.7 days. Also, the Non-prescribed withdrawal entry was “one of six patients and 1/6” in series [2] (setting [7]); “three of six patients and 3/6” in series [2] (setting [8]). Further, the RECIST evaluation entry in series [2] (4-administration with 3-withdrawal, 24 mg/body/day, six patients) was “two of the six patients had stable disease (SD)”; in series [2] (setting [8]) it was “all of the patients had progressive disease (PD)”. Besides, the “Tumor shrinkage effect (waterfall plots), 4-administration with 3-withdrawal versus 7 consecutive days” value in series [2] (recommend doses, FIG. 4) was “superior”. Besides, in series [3] (each Compound 1 administration group), the Body weight change result is recorded as “without serious weight loss”. Besides, the “Antitumor effect (RTV, T/C)” value in series [3] (oral 16 or 24 mg/kg/day 7 consecutive days or 24 mg/kg/day 4-administration with 3-withdrawal, Days 1-21) is reported as “excellent antitumor effect”. The “Accumulation (blood drug concentrations day 21 or day 18 versus day 1)” value in series [4] (16 mg/body/day 7 consecutive days and 24 mg/body/day 4-administration with 3-withdrawal) was “has accumulation properties”. For the same molecule, the “Blood concentration remaining before administration” value in series [4] (day 3) was found to be 25.7 ng/mL; in series [4] (day 4), 35.7 ng/mL. Also, the results for the “Maximum tolerable administration amount (recommend dose)” value in series [5] (4-administration with 3-withdrawal) and in series [5] (administration for 7 consecutive days) were 24 mg/body/day and 16 mg/body/day, respectively.
As to AZD5363, in series [6], the Half-life entry was “about 6 hours”.

The values are drawn from patent publication US20220354858A1, “METHOD FOR TREATING MALIGNANT TUMOR” (TAIHO PHARMACEUTICAL CO., LTD., priority 2019, published 2022).
